What was measured:
[1] = Aqueous solubility of compound at pH 7; type: physicochemical
[2] = Prodrug activation in human whole blood assessed as S-(-)-nadifloxacin release measured after 30 to 60 mins by LC-MS/MS analysis; type: tissue-based; settings: time 30-60 min
[3] = Prodrug activation in human liver S9 fraction assessed as S-(-)-nadifloxacin release measured after 30 to 60 mins by LC-MS/MS analysis; type: subcellular; settings: time 30-60 min
[4] = Prodrug activation in human intestinal S9 fraction assessed as S-(-)-nadifloxacin release measured after 90 mins by LC-MS/MS analysis; type: subcellular, Intestine; settings: s9, 1.5 h

Row | SMILES | solubility [1] [mg/mL] | Drug metabolism [2] | Drug metabolism [3] | Drug metabolism [4]
1 | C[C@H]1CCc2c(N3CCC(O)CC3)c(F)cc3c(=O)c(C(=O)O)cn1c23.N=C(N)NCCC[C@H](N)C(=O)O.O.O.O.O | < 1 |  |  | 
2 | CC(C)[C@H](N)C(=O)OC1CCN(c2c(F)cc3c(=O)c(C(=O)O)cn4c3c2CC[C@@H]4C)CC1 | > 200 |  |  | 
3 | CS(=O)(=O)O.C[C@H](N)C(=O)OC1CCN(c2c(F)cc3c(=O)c(C(=O)O)cn4c3c2CC[C@@H]4C)CC1 | < 1 | Metabolite_Detected | Metabolite_Detected | Metabolite_Detected
4 | CC(C)[C@H](N)C(=O)OC1CCN(c2c(F)cc3c(=O)c(C(=O)O)cn4c3c2CC[C@@H]4C)CC1.CS(=O)(=O)O | > 200 |  |  | 

From ChEMBL document CHEMBL5029180, “Design and synthesis of an oral prodrug alalevonadifloxacin for the treatment of MRSA infection” (Bioorg Med Chem Lett, 2021)
